Measurements taken from patent publication US6521239B1, “Cosmetic composition containing at least one auxin and its use” (Societe L'Oreal S.A., priority 1997, dated 2003).

Tested on: reconstructed human epidermis
Assay: incorporation of 14C-acetate into total lipids in reconstructed human epidermis (Skinethic)
Format: cell-based
Settings: for percentage of stimulation (incorporation of 14C-acetate, total lipid synthesis): untreated cells = 100
Protocol: Study of the effect of β-naphthoxyacetic acid on the synthesis of the total lipids of the skin.
The study is carried out by measuring the incorporation of acetate labelled with carbon-14 in models of reconstructed human epidermis sold by the company Skinethic, the total lipids composition of which is close to that of normal human epidermis.
The reconstructed human epidermis is cultured according to the supplier's recommendations.
β-Naphthoxyacetic acid, at concentrations of 10^−5, 10^−6, and 10^−7 M, is placed in contact for 72 hours with reconstructed human epidermides, after culturing the latter for 14 days under the conditions recommended by the supplier. The labelling with ^14C-acetate (sodium [2-^14C]-acetate sold by Amersham, 59 mci/mmol) is carried out 24 hours after placing the test product in contact with the culture, i.e. during the final 48 hours of culturing, at a rate of 0.5 μCi of ^14C-acetate per culture.
At the end of culturing, after washing the epidermides with phosphate buffer (PBS), the epidermides are dissociated and the cells are lysed with 0.5 M perchloric acid from ice. The lysates then undergo an extraction with a methanol/chloroform mixture (2:1), a centrifugation and a re-extraction of the pellets obtained, under the same conditions as above. The lipids are separated by addition of PBS and chloroform (Blight-Byer technique). The organic phase containing the lipids is taken and the radioactivity incorporated into this phase is determined by liquid scintillation. The organic phase is then dried under a flow of nitrogen. A thin layer chromatography on plates on plates (Merck K60) using, as eluent, a chloroform/methanol/water mixture (50:18:2.6) to separate the phospholipids, or a hexane/ether/acetic acid mixture (15:5.6:0.19) to separate the neutral lipids.
The plates are then autoradiographed for 24 hours and the chromatograms are analysed by densitometry using the One-D-Scan software from the company Scanalytics.
The results are evaluated relative to a control consisting of cells which have not been treated with β-naphthoxyacetic acid.
A positive control (10^−4 M trifluoperazine), which is known to stimulate lipid synthesis, and an negative control (10^−6 M retinoic acid) are introduced into the test by way of reference.

| SMILES | percentage of stimulation (incorporation of 14C-acetate, total lipid synthesis) (10^−6 M, 72 hours contact) | percentage of stimulation (incorporation of 14C-acetate, total lipid synthesis) (10^−4 M, positive control) | percentage of stimulation (incorporation of 14C-acetate, total lipid synthesis) (10^−5 M, 72 hours contact) | effect on incorporation of acetate / lipid synthesis (in words) (10^−5 to 10^−7 M, reconstructed human epidermis) | percentage of stimulation (incorporation of 14C-acetate, total lipid synthesis) (10^−7 M, 72 hours contact) |
| --- | --- | --- | --- | --- | --- |
| CC1=C(/C=C/C(C)=C/C=C/C(C)=C/C(=O)O)C(C)(C)CCC1 [Retinoic acid, retinoic acid, reference compound] | 82% |  |  |  |  |
| CN1CCN(CCCN2c3ccccc3Sc3ccc(C(F)(F)F)cc32)CC1 [Trifluoroperazine, trifluoperazine, reference compound] |  | 122% |  |  |  |
| O=C(O)COc1ccc2ccccc2c1 [β-Naphthoxyacetic acid] | 113% |  | 110% | significantly stimulates the incorporation of acetate | 116% |
